Test results: US20060258581A1, “Methods and composition for derepressions of IAP-inhibited caspase” (priority 2001, published 2006)
Read-outs that look alike come from different tables or passages of the source.

Key:
[1] = test system: PPC1, ALVA31, DU145 and HeLa cells; test: Combination with TRAIL; format: cell-based; settings: 1 µM
Experimental: Similar tests of the effects of polyphenyl urea compounds on apoptosis induction by the biological agent TRAIL, an apoptosis inducing member of the Tumor Necrosis Factor (TNF) family were also performed.

[2] = test system: caspase-3 and caspase-7 activity in Jurkat cells; test: Caspase-3 and caspase-7 activity in whole Jurkat cells, cell permeable substrate; format: cell-based; settings: 8 μM, 20 hours
[3] = target: T1, XIAP-inhibited caspase-3 (Homo sapiens, UniProt P98170); test: IAP derepression assay: Ac-DEVD-AFC hydrolysis by caspase-3 in the presence of GST-XIAP; format: biochemical; settings: in words
T1 construct: in a caspase derepression assay using full length XIAP; made in house; host or cells: bacteria
Experimental: The ratio of Vmax for hydrolysis of Ac-DEVD-AFC in the presence and absence of the candidate mixture was calculated and used to identify those that contain an agent that derepresses an IAP-inhibited caspase.
Each mixture was aliquoted in a 25 microliter volume and in duplicate to a well of a 96 well microtiter plate. […] Fluorescence of liberated AFC was immediately detected from each well for 30 minutes at 30 second intervals. The Vmax for hydrolysis of AC-DEVD-AFC from each well was measured using the softmax software package.

[4] = test system: Jurkat leukemia cells; test: Jurkat leukemia cell death, Annexin V/propidium iodide flow cytometry; format: cell-based; settings: for cells killed: one day treatment
Experimental: The following assay was used to test the ability of individual compounds from the TPI 1396 and TPI 1391 libraries to induce apoptosis of cultured tumor cell lines. Each of the compounds listed in Table IX was individually added to Jurkat leukemia cells (6.25×10^5 cells/mL) in RPMI containing 2.5% FBS at various concentrations for 20 hours. After incubation, cells were washed and stained with FITC-conjugated Annexin V antibody and propidium iodide (Biovision; Mountain View, Calif.). Cells were incubated for 20 minutes at room temperature in the dark and fluorescence was measured by flow cytometry (FACScan, Immunocytometry system; Becton-Dickinson; San Jose, Calif.). Cells staining positive for Annexin V were deemed non-viable.
The TPI I396-34 and TPI 1391-28 compounds were further tested as set forth below.

[5] = test system: tumor cells pulsed with specific antigen, antigen-specific T cells; test: Antigen-specific CTL cytotoxicity, 51Cr release; format: cell-based; settings: 10 μM, 4 hours
Experimental: After 4 hours, ^51Cr release was measured. Data shown in FIG. 39 are expressed as a percentage of total release induced by detergent lysis, and data represent mean±standard deviation of duplicate determinations.

[6] = test system: mouse embryo fibroblasts, human prostate epithelial cells, peripheral blood lymphocytes; test: Normal cells (MEFs, human prostate epithelial cells, PBLs), 2 days, annexin-V; format: cell-based; design: dose or concentration left out as unconfirmed
Experimental: (§1) After 2 days, cell viability was assessed by annexin-V staining.

[7] = test system: U937 leukemia cells over-expressing XIAP; test: U937-Neo versus U937-XIAP leukemia cells, Annexin V; format: cell-based; settings: 5 or 8 μM, 20 hours
Experimental: After incubation, cells were washed, stained with FITC-conjugated Annexin V antibody and propidium iodide, and fluorescence measured by flow cytometry as described in Example XI.
Equal amounts of protein were subjected to SDS-PAGE (4-20% gradient gels from ISC BioExpress, Kaysville, Utah), followed by transfer to nitrocellulose membranes. […] Secondary antibodies consisted of horseradish peroxidase (HRP)-conjugated:goat anti-mouse IgG (Bio-Rad, Hercules, Calif.). Detection was performed by the enhanced chemiluminescence (ECL) method. […] Lysates were prepared from the cells, normalized for total protein content and analyzed by SDS-PAGE immunoblotting using antibodies specific for XIAP, caspase-3, and β-actin.

[8] = target: XIAP (Homo sapiens, UniProt P98170); test: SMAC binding/competition assay: biotinylated SMAC 7-mer on NeutrAvidin plates, GST-XIAP detected by anti-GST; settings: in words
Experimental: Peptide compounds containing unnatural amino acids in the 792 series, 792-33 and 792-35 (see FIG. 12 and 20 and Example XI), and an active compound in the TPI 1332 series, TPI 1332-69, were tested for binding activity in the SMAC binding assay as described above in Example X. For this assay, biotinylated SMAC 7-mer peptide (50 ng) was bound to 96 well plates coated with NeutrAvidin (Pierce, Rockford, Ill.) at 1 mg/ml in 100 μl per well of 50 mM HEPES pH 7.4, 100 mM NaCl 1 mM EDTA, 10% sucrose, 0.1% CHAPS, 10 mM DTT.

[9] = test system: Du145 prostate cancer cells; test: Combination with anticancer drugs, MTT assay; format: cell-based; settings: 10 μM, 48 hours
Experimental: The percentage of viable cells relative to control was determined using a MTT (3-(4,5-dimethylthiazolyl-2)-2,5-diphenyltetrazolium bromide) assay which is commercially available (Sigma). […] Similar results were obtained for PPC1 (FIG. 31b) and PC3 (FIG. 31c) prostate cancer cells treated with VP16, DOX, or TAXOL, and for H460 (FIG. 31d) lung cancer cells treated with VP16 or DOX.

[10] = target: full length XIAP (Homo sapiens, UniProt P98170); test: Potency of IAP antagonists in vitro (Table VIII; caspase derepression / SMAC competition with full length XIAP)
[11] = test system: Jurkat leukemia cells; test: Jurkat leukemia cell death, Annexin V/propidium iodide flow cytometry; format: cell-based
[12] = test system: Jurkat and HeLa tumor cell lines; test: Tumor cell lines Jurkat and HeLa, 2 days, annexin-V; format: cell-based; design: dose or concentration left out as unconfirmed
Experimental: as §1

[13] = test system: HeLa cells; test: Transfected HeLa cells, apoptosis by Annexin V; format: cell-based; settings: 5 μM, 20 hours
Experimental: In addition to transfecting the cells with full-length XIAP, analogous assays were performed with HeLa cells transfected with plasmids over-expressing various XIAP mutants. […] The mutant was produced by site-directed mutagenesis to modify positions 148, 219, 223, 314 and 323 to contain alanine. HeLa cells were also transiently transfected with plasmids encoding Bcl-XL, an anti-apoptotic protein that operates upstream of caspases to suppress Cytochrome C release from mitochondria. HeLa cells (2.5×10^5) were seeded onto six well plates in 2 mL DMEM H21 with 5% FBS. After 24 hrs, cells were transfected (Gene Porter) with plasmids. […] Both floating and adherent cells were then recovered from cultures, washed, and apoptosis was determined by Annexin V staining using flow cytometry.
Bcl-XL over-expression did afford resistance to traditional anticancer drugs such as etoposide and CrmA (a caspase-8 inhibitor), and protected cells from apoptosis induced by TRAIL, confirming that these anti-apoptotic proteins were functional in these experiments.

Chain of XIAP (P98170 whole entry): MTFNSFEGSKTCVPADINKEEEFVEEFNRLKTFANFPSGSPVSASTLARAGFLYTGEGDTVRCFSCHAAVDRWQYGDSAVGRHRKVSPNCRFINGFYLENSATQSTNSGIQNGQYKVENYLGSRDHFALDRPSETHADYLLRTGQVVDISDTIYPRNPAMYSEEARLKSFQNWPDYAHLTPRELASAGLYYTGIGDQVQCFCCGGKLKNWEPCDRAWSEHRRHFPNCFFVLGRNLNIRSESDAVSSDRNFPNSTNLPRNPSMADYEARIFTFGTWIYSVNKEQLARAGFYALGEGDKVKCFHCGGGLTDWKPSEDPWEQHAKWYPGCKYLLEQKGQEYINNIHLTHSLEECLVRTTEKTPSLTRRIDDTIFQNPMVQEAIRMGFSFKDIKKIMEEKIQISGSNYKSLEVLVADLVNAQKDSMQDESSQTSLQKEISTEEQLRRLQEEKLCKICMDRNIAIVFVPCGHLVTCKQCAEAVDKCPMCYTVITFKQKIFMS
Chain of full length XIAP (P98170 whole entry): as above
T1 sequence (P98170 whole entry): as above

## COc1ccc(CCN2CCC[C@@H]2CN(C(=O)Nc2ccccc2)[C@@H](CNC(=O)Nc2ccccc2)CC2CCCCC2)cc1 [TPI 1396-34]
[1]
  sensitization to TRAIL-induced apoptosis: sensitized
[2]
  caspase activation in whole cells: induced caspase activation
[3]
  activity in the caspase derepression assay using full length XIAP: active XIAP inhibitors
[4]; 5 μM
  cells killed: about 75%
[4]; 8 μM
  cells killed: ~85%
[4]; 10 µM
  time to maximum killing: about 24 hours
[4]; Homo sapiens, Jurkat, 20 h, 1 μM, 20 hours, read-out: % nonviable cells
  cytotoxicity at 1 µM: 13%
[4]; Homo sapiens, Jurkat, 20 h, 5 μM (first column headed 5), 20 hours, read-out: % nonviable cells
  cytotoxicity at 5 µM: 73%
[4]; Homo sapiens, Jurkat, 20 h, 5 μM (second column headed 5), 20 hours, read-out: % nonviable cells
  cytotoxicity at 5 µM: 51%
[4]; Homo sapiens, Jurkat, 20 h, 10 μM, 20 hours, read-out: % nonviable cells
  cytotoxicity at 10 µM: 62%
[4]; Homo sapiens, Jurkat, 20 h, 25 μM, 20 hours, read-out: % nonviable cells
  cytotoxicity at 25 µM: 83%
[4]; Homo sapiens, Jurkat, 20 h, 50 μM, 20 hours, read-out: % nonviable cells
  cytotoxicity at 50 µM: 85%
[4]; Homo sapiens, Jurkat, 24 h, one-day exposure, read-out: EC50 for killing Jurkat leukemia cells
  EC50: ~6.5 µM
[5]
  CTL-mediated lysis of tumor targets: sensitizes tumor targets to CTL-mediated lysis
[6]
  increase of percentage cell death above background: less than one-fold
[7]
  effect of over-expression of XIAP on apoptosis induction: resistant
[8]
  competition with XIAP binding to the SMAC peptide (SMAC competition assay): does not compete
[9]
  effect on dose-dependent cytotoxicity of VP16, DOX and TAXOL: significantly increased dose-dependent cytotoxicity
[10]
  EC50: 77.1 µM
[11]; 10 µM
  time to half-maximal killing: approximately 12 hours
[11]; 100 μM zVAD-fmk, 20 hours
  apoptosis in the presence of zVAD-fmk: suppressible
[12]
  increase of killing above background: > 4 fold
[13]
  apoptosis in HeLa cells over-expressing Bcl-XL: not blocked
  apoptosis in HeLa cells over-expressing full-length XIAP: protected
  apoptosis in HeLa cells transfected with a control vector: induced apoptosis
